This is an account of results in PubChem BioAssay (NCI).

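Protocol summary: plate cells (96-well), add compound at 5 concentrations, incubate 48 h, interpolate endpoints linearly. Abbreviation: GI50, concentration required for 50% inhibition of growth. TGI: concentration producing complete growth inhibition.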 Some results are limits rather than exact numbers.

Assay in all cases: DTP human tumour cell line panel, 48 h
Assay [1] deals with NCI-H23 lung.
Assay [2] concerns A498 renal.
The test system of assay [3] is SK-MEL-28 melanoma.
In assay [4] the test system is HCT-15 colon.
The subject of assay [5] is NCI-H460 lung.
The subject of assay [6] is A549 NSCLC.
Assay [7] deals with BT-549 breast.
Assay [8] relates to CAKI-1 renal.
The test system of assay [9] is HS 578T breast.
For assay [10], the system named is UO-31 renal.

Usually GI50 stands for the concentration giving 50% growth inhibition. The TGI is the concentration at which net growth stops. Regarding `CCOC(=O)Nc1ccc2nc(-c3cscn3)[nH]c2c1`, the GI50 is 8.47 µM in assay [1]; 3.5 µM in assay [2]; 7.23 µM in assay [3]; 2.2 µM in assay [4]; 4.05 µM in assay [5]; 5.99 µM in assay [6]. Besides, the GI50 in assay [7] is 7.1 µM; in assay [8], 5.63 µM; in assay [9], 8.3 µM; in assay [10], 8.77 µM. For the same compound, the TGI is greater than 100 µM in assay [1]; 21 µM in assay [2]; greater than 100 µM in [3]; greater than 100 µM in [4]; greater than 100 µM in [5]; greater than 100 µM in assay [6]. Besides, the TGI in assay [7] was greater than 100 µM; in assay [8], greater than 100 µM; in [9], 92.6 µM; in [10], greater than 100 µM.

On to `C/C(=N/NC(=S)Nc1ccccc1)c1nc2ccc(Cl)cc2[nH]1`, for which the 50% growth inhibitory concentration (GI50) in [1] was 0.406 µM; in assay [2] it was 0.0806 µM; in assay [3] it was 0.18 µM; in assay [4] it was 0.0656 µM; in assay [5], 0.0351 µM; in assay [6] it was 0.217 µM. The results for the GI50 in [7], in [9] and in [10] were 0.135 µM, 0.57 µM and 0.0738 µM, respectively. Further, the TGI in assay [1] was determined as 1.52 µM; in [2], 0.708 µM; in assay [3], 0.872 µM; in [4] it was 6.9 µM; in [5] it was 0.522 µM; in assay [6], 1.41 µM. Moreover, the TGI in [7] was 0.924 µM; in assay [9], 1.96 µM; in [10], 0.795 µM.

`Oc1ccc(Cl)cc1C=Nc1cnc2ccccc2c1`: the TGI in [1], in assay [2], in assay [3], in assay [4], in [5] and in assay [6] was greater than 100 µM throughout. In addition, the TGI in assay [7], in assay [8], in assay [9] and in assay [10] was greater than 100 µM in each case.

Consider `CN1CCN(C2=NC(=O)/C(=C\c3ccc(N(C)C)cc3)S2)CC1`, for which the GI50 in [1], in assay [2], in assay [3], in assay [4], in assay [5] and in [6] was greater than 100 µM each time. For the same compound, the GI50 in assay [7] was greater than 100 µM; in assay [8], greater than 100 µM; in assay [9], greater than 100 µM; in assay [10] it was 71 µM. In addition, the TGI in assay [1], in [2], in [3], in assay [4], in assay [5] and in assay [6] was greater than 100 µM throughout. In addition, the TGI in assay [7], in assay [8], in assay [9] and in assay [10] was greater than 100 µM each time.

Regarding `COc1cc2c(/C=C3\C(=O)Nc4ccccc43)c[nH]c2cc1C`, the GI50 is 0.0115 µM in [1]; less than 0.0243 µM in [2]; 0.021 µM in assay [3]; 0.725 µM in [4]; 0.0761 µM in assay [5]; less than 0.0289 µM in [6]. Moreover, the GI50 in assay [7] is 0.294 µM; in [8], 0.409 µM; in assay [9] it was less than 0.0229 µM; in [10], 2.87 µM. Moreover, the TGI in assay [1] was 0.0719 µM; in assay [2], 16.5 µM; in assay [3], 20.3 µM; in [4], 2.93 µM; in assay [5] it was greater than 100 µM; in [6], 17.3 µM. The TGI in assay [7] is 15.8 µM; in assay [8], 13.3 µM; in assay [9], 32.1 µM; in assay [10] it was greater than 40.8 µM.

Turning to `COc1ccc(-c2ccc(C3CC(c4ccccc4)=NN3)o2)c([N+](=O)[O-])c1` (stereo not drawn), the GI50 is 39.1 µM in assay [1]; 68.4 µM in assay [2]; greater than 100 µM in [3]; 37.4 µM in assay [4]; 36.5 µM in assay [5]; 47.1 µM in assay [6]. Moreover, the GI50 in assay [7] is 47.4 µM; in assay [8], 34.4 µM; in assay [9], 43 µM; in [10], greater than 100 µM. The TGI in assay [1], in [2], in assay [3], in assay [4], in [5] and in assay [6] was greater than 100 µM in each case. The TGI in assay [7], in assay [8], in assay [9] and in assay [10] was greater than 100 µM throughout.

Turning to `N=C1CCCC1C(=S)SCCC(N)=O` (stereo not drawn), the TGI in assay [1], in [2], in [3], in assay [4], in [5] and in [6] was greater than 100 µM each time. Further, the TGI in assay [7], in assay [8], in assay [9] and in [10] was greater than 100 µM throughout.

With `CC1(C)CC(C)(C)c2cc(NC(=S)Nc3ccc([N+](=O)[O-])cc3)ccc2S1`, the GI50 in [1] was 12.2 µM; in assay [2], 9.16 µM; in assay [3], 17.2 µM; in assay [4], 12.6 µM; in assay [5], 27.6 µM; in [6] it was 12.3 µM. For the same compound, the GI50 in [7] was 13.2 µM; in assay [8], 11.5 µM; in [9], 24.2 µM; in assay [10], 12.4 µM. Besides, the TGI in [1] is 50.2 µM; in [2], 19.1 µM; in assay [3], 68.5 µM; in assay [4], 45.8 µM; in [5], greater than 69.3 µM; in assay [6], 52.7 µM. Besides, the TGI in assay [7] was 28.2 µM; in assay [8] it was 32.1 µM; in [9] it was 58.3 µM; in assay [10], 39.4 µM.
